Several values for one entry are separate records, joined by “and”; a condition that tells them apart may be missing. Equal entries are not always repeated. Inconclusive results and toxic doses are left out. No stated cut-off is given here; in the data, active means T/C of 150% or more; inactive means T/C below 125%.
Test system: L1210 leukemia ip in BDF1 mice, survival T/C
Test: NCI In Vivo Anticancer Drug Screen. Data for tumor model L1210 Leukemia (intraperitoneal) in B6D2F1 (BDF1) mice
Conditions: endpoint: mean survival time, higher = longer survival
Outline: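 Mice bearing the transplanted tumor received compound or vehicle. Survival of the treated group was divided by that of the vehicle-treated control group to give the ratio.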

[1] = dose: 100.0 mg/kg/injection, schedule: Q04DX003 (ip), vehicle: Klucel (hydroxypropylcellulose) (HPC)
[2] = dose: 100.0 mg/kg/injection, schedule: Q04DX003 (ip), vehicle: saline with Tween-80
[3] = dose: 200.0 mg/kg/injection, schedule: Q04DX003 (ip), vehicle: saline with Tween-80
[4] = dose: 400.0 mg/kg/injection, schedule: Q04DX003 (ip), vehicle: saline with Tween-80
[5] = dose: 100.0 mg/kg/injection, schedule: Q01DX001 (ip), vehicle: saline
[6] = dose: 200.0 mg/kg/injection, schedule: Q01DX001 (ip), vehicle: saline
[7] = dose: 400.0 mg/kg/injection, schedule: Q01DX001 (ip), vehicle: saline
[8] = dose: 100.0 mg/kg/injection, schedule: Q04DX003 (ip), vehicle: saline
[9] = dose: 200.0 mg/kg/injection, schedule: Q04DX003 (ip), vehicle: saline
[10] = dose: 400.0 mg/kg/injection, schedule: Q04DX003 (ip), vehicle: saline
[11] = dose: 100.0 mg/kg/injection, schedule: Q01DX009 (ip), vehicle: saline with Tween-80
[12] = dose: 200.0 mg/kg/injection, schedule: Q01DX009 (ip), vehicle: saline with Tween-80
[13] = dose: 400.0 mg/kg/injection, schedule: Q01DX009 (ip), vehicle: saline with Tween-80
[14] = dose: 75.0 mg/kg/injection, schedule: Q01DX001 (ip), vehicle: carboxymethylcellulose (CMC)
[15] = dose: 150.0 mg/kg/injection, schedule: Q01DX001 (ip), vehicle: carboxymethylcellulose (CMC)
[16] = dose: 300.0 mg/kg/injection, schedule: Q01DX001 (ip), vehicle: carboxymethylcellulose (CMC)

Measured: T/C

Clc1ccc(C=Nc2cccc3ccccc23)c(Cl)c1
inactive: dose: 100.0 mg/kg/injection, schedule: Q01DX009 (ip), vehicle: Klucel (hydroxypropylcellulose) (HPC) 90 % of control | dose: 200.0 mg/kg/injection, schedule: Q01DX009 (ip), vehicle: Klucel (hydroxypropylcellulose) (HPC) 98 % of control | dose: 400.0 mg/kg/injection, schedule: Q01DX009 (ip), vehicle: Klucel (hydroxypropylcellulose) (HPC) 93 % of control

CN(C)NC(=O)CC(N)C(=O)O (stereo not given)
inactive: dose: 100.0 mg/kg/injection, schedule: Q01DX009 (ip), vehicle: saline 97 % of control | dose: 200.0 mg/kg/injection, schedule: Q01DX009 (ip), vehicle: saline 114 % of control | dose: 400.0 mg/kg/injection, schedule: Q01DX009 (ip), vehicle: saline 100 % of control

O=C1C=CC(=O)N1c1ccc(Br)cc1Cl
inactive: dose: 0.78 mg/kg/injection, schedule: Q04DX003 (ip), vehicle: saline 91 % of control | dose: 1.0 mg/kg/injection, schedule: Q01DX009 (ip), vehicle: saline 101 % of control | dose: 1.56 mg/kg/injection, schedule: Q04DX003 (ip), vehicle: saline 93 % of control | dose: 2.0 mg/kg/injection, schedule: Q01DX009 (ip), vehicle: saline 110 % of control | dose: 3.13 mg/kg/injection, schedule: Q04DX003 (ip), vehicle: saline 106 % of control | dose: 4.0 mg/kg/injection, schedule: Q01DX009 (ip), vehicle: saline 89 % of control | dose: 25.0 mg/kg/injection, schedule: Q04DX003 (ip), vehicle: saline with Tween-80 100 % of control | [1] 93 % of control

CCOC(=O)C1=C(O)c2c(sc(C)c2-c2ccccc2)N(S(=O)(=O)c2ccc(C)cc2)CC1
inactive: dose: 50.0 mg/kg/injection, schedule: Q04DX003 (ip), vehicle: saline with Tween-80 98 % of control | [2] 93 % of control | [3] 93 % of control | [4] 98 % of control

O=S1(=O)CCC2CCCCC2C1 (stereo not given)
inactive: dose: 6.25 mg/kg/injection, schedule: Q01DX009 (ip), vehicle: saline with Tween-80 94 % of control | dose: 12.5 mg/kg/injection, schedule: Q01DX009 (ip), vehicle: saline with Tween-80 100 % of control | dose: 25.0 mg/kg/injection, schedule: Q01DX009 (ip), vehicle: saline with Tween-80 90 % of control

O=[N+]([O-])c1ccc(N=Cc2ccccc2)c(O)c1
inactive: [5] 93 % of control | [6] 98 % of control | [7] 98 % of control

Clc1ccc(-c2nc3ccccc3cc2N2CCOCC2)cc1
inactive: [1] 108 % of control | dose: 200.0 mg/kg/injection, schedule: Q04DX003 (ip), vehicle: Klucel (hydroxypropylcellulose) (HPC) 103 % of control | dose: 400.0 mg/kg/injection, schedule: Q04DX003 (ip), vehicle: Klucel (hydroxypropylcellulose) (HPC) 100 % of control

COc1ccc(C(C)=O)c(OC)c1C
inactive: [8] 95 % of control | [9] 90 % of control | [10] 98 % of control

O=C(c1ccccc1)c1cc(O)c(O)c(O)c1
inactive: dose: 100.0 mg/kg/injection, schedule: Q01DX009 (ip), vehicle: other 99 % of control | [8] 100 % of control | dose: 200.0 mg/kg/injection, schedule: Q01DX009 (ip), vehicle: other 90 % of control | [9] 94 % of control | dose: 400.0 mg/kg/injection, schedule: Q01DX009 (ip), vehicle: other 99 % of control | [10] 100 % of control

CN(C)c1ccc(NC(=O)Nc2cccc(Cl)c2)cc1
inactive: [11] 91 % of control | [2] 94 % of control | [12] 94 % of control | [3] 100 % of control | [13] 92 % of control | [4] 92 % of control

CNC(=O)Nc1ccc(C(=O)NCC(=O)O)cc1
inactive: [11] 100 % of control and 105 % of control | dose: 100.0 mg/kg/injection, schedule: Q04DX002 (ip), vehicle: saline 100 % of control and 92 % of control | [2] 98 % of control | [12] 93 % of control and 100 % of control | dose: 200.0 mg/kg/injection, schedule: Q04DX002 (ip), vehicle: saline 100 % of control and 91 % of control | [3] 91 % of control | [13] 105 % of control and 110 % of control | dose: 400.0 mg/kg/injection, schedule: Q04DX002 (ip), vehicle: saline 95 % of control and 96 % of control | [4] 98 % of control

CCCCCCCCCCCCCC(=O)OCC(C)C
inactive: dose: 222.0 mg/kg/injection, schedule: Q01DX Z (ip), vehicle: saline 94 % of control | dose: 333.0 mg/kg/injection, schedule: Q01DX Z (ip), vehicle: saline 90 % of control | dose: 500.0 mg/kg/injection, schedule: Q01DX Z (ip), vehicle: saline 94 % of control

N#CC1(c2ccccc2)CCCC1(C#N)c1ccccc1 (stereo not given)
inactive: [14] 86 % of control | [15] 88 % of control | [16] 86 % of control

CCC(CC)c1ccc2ccccc2c1
inactive: [5] 100 % of control | [6] 98 % of control | [7] 101 % of control

CCC(/C=N/N=C(N)N)=N\N=C(N)N
inactive: dose: 15.0 mg/kg/injection, schedule: Q01DX Z (ip), vehicle: saline 97 % of control | dose: 30.0 mg/kg/injection, schedule: Q01DX Z (ip), vehicle: saline 103 % of control | dose: 30.0 mg/kg/injection, schedule: Q01DX Z (oral), vehicle: saline 102 % of control | dose: 60.0 mg/kg/injection, schedule: Q01DX Z (ip), vehicle: saline 103 % of control and 115 % of control | dose: 60.0 mg/kg/injection, schedule: Q01DX Z (oral), vehicle: saline 101 % of control | dose: 120.0 mg/kg/injection, schedule: Q01DX Z (ip), vehicle: saline 108 % of control | dose: 120.0 mg/kg/injection, schedule: Q01DX Z (oral), vehicle: saline 97 % of control and 106 % of control | dose: 240.0 mg/kg/injection, schedule: Q01DX Z (oral), vehicle: saline 102 % of control and 104 % of control | dose: 480.0 mg/kg/injection, schedule: Q01DX Z (oral), vehicle: saline 111 % of control

O=C(N/N=C/c1ccc(Cl)cc1Cl)C(O)(c1ccccc1)c1ccccc1
inactive: dose: 100.0 mg/kg/injection, schedule: Q01DX001 (ip), vehicle: carboxymethylcellulose (CMC) 111 % of control | dose: 200.0 mg/kg/injection, schedule: Q01DX001 (ip), vehicle: carboxymethylcellulose (CMC) 101 % of control | dose: 400.0 mg/kg/injection, schedule: Q01DX001 (ip), vehicle: carboxymethylcellulose (CMC) 92 % of control

O=C(Nc1ccc(Cl)cc1)Nc1ncn[nH]1
inactive: [14] 101 % of control | [15] 97 % of control | [16] 95 % of control

CC(=O)OCC(CS(=O)c1c(Cl)c(Cl)c(Cl)c(Cl)c1Cl)OC(C)=O (stereo not given)
inactive: dose: 25.0 mg/kg/injection, schedule: Q04DX002 (ip), vehicle: Klucel (hydroxypropylcellulose) (HPC) 93 % of control | dose: 50.0 mg/kg/injection, schedule: Q04DX002 (ip), vehicle: Klucel (hydroxypropylcellulose) (HPC) 86 % of control | dose: 100.0 mg/kg/injection, schedule: Q04DX002 (ip), vehicle: Klucel (hydroxypropylcellulose) (HPC) 106 % of control and 89 % of control | dose: 200.0 mg/kg/injection, schedule: Q04DX002 (ip), vehicle: Klucel (hydroxypropylcellulose) (HPC) 97 % of control and 124 % of control | dose: 400.0 mg/kg/injection, schedule: Q04DX002 (ip), vehicle: Klucel (hydroxypropylcellulose) (HPC) 109 % of control

From PubChem BioAssay AID248 (DTP/NCI, 2004)
